Results taken from US9309225B2, “N-((1-benzyl-1H-1,2,3-triazol-4-yl)methyl)arylamide compounds as potential anticancer agents and a process for the preparation thereof” (COUNCIL OF SCIENTIFIC & INDUSTRIAL RESEARCH, priority 2013, dated 2016).
Where two headings read alike, the source gives them in different places.

Tests used:
[1] = tested on: A549; assay: IC50 of compounds and E7010 against A549 cell line; type: cell-based
Text: (§1) In the present investigation, an attempt has been made, in view of the biological importance of both 2-anilino nicotinyl structure and 1,2,3-triazoles group. […] Introduction of triazole group on 2-anilino nicotinyl moiety resulted that there is enhancement of biological activity of representative compounds (1a, 1b, 1c, 1d, 1f, 1g, 1i, 1k, 6b and 6g) compare with E7010. Biological data of representative compounds has been provided in Table 1. • (Novel sulfonamides as potential, systemically active antitumor agents. Yoshino, H.; Ueda, N.; Niijima, J.; Sugumi, H.; Kotake, Y.; Koyanagi, N.; Yoshimatsu, K.; Asada, M.; Watanabe, T.; Nagasu, T. J. Med. Chem. 1992, 35, 2496-2497)

[2] = tested on: MCF-7; assay: IC50 of compounds and E7010 against MCF-7 cell line; type: cell-based
Text: as §1

[3] = tested on: MCF-7; conditions: MCF-7 cell line; E7010 comparison value (Chem MedChem 2012, 7, 680-693); cited from earlier work
[4] = tested on: A549; conditions: A549 cell line; E7010 comparison value (Chem MedChem 2012, 7, 680-693); cited from earlier work
[5] = Homo sapiens, A549, A549 cell line
[6] = Homo sapiens, MCF7, MCF-7 cell line

Structure (SMILES) | melting point [°C] | IC50 ([1]; A549 cell line) [µM] | IC50 [1, 5] [µM] | IC50 [2, 6] [µM] | IC50 ([2]; MCF-7 cell line) [µM] | IC50 [3] [µM] | IC50 [4] [µM]
O=C(NCc1cn(Cc2cccc(Oc3ccccc3)c2)nn1)c1cccnc1Nc1ccc(Cl)cc1 [Compound 1c, 2-(4-Chlorophenylamino)-N-((1-(3-phenoxybenzyl)-1H-1,2,3-triazol-4-yl)methyl)nicotinamide] | 127 to 129 | – | – | – | – | – | –
O=C(NCc1cn(Cc2cccc(Oc3ccccc3)c2)nn1)c1cccnc1Nc1ccc(Br)cc1 [Compound 1d, 2-(4-Bromophenylamino)-N-((1-(3-phenoxybenzyl)-1H-1,2,3-triazol-4-yl)methyl)nicotinamide] | 160 to 162 | 1.9 | 1.25 to 3.98 | 0.74 to 2.51 | 0.97 | – | –
O=C(NCc1cn(Cc2cccc(Oc3ccccc3)c2)nn1)c1cccnc1Nc1cccc(F)c1 [Compound 1f, 2-(3-Fluorophenylamino)-N-((1-(3-phenoxybenzyl)-1H-1,2,3-triazol-4-yl)methyl) nicotinamide] | 130 to 132 | 1.9 | 1.25 to 3.98 | – | – | – | –
COc1ccc(S(=O)(=O)Nc2cccnc2Nc2ccc(O)cc2)cc1 [Compound E7010] | – | – | – | – | – | 9.06 | 4.45

More lines, main results first:

melting point [°C] | IC50 ([1]; A549 cell line) [µM] | IC50 [1, 5] [µM] | IC50 [2, 6] [µM] | IC50 ([2]; MCF-7 cell line) [µM] | Structure (SMILES) | IC50 [3] [µM] | IC50 [4] [µM]
140 to 142 | 1.25 | 1.25 to 3.98 | 0.74 to 2.51 | 1 | COc1cc(Cn2cc(CNC(=O)c3cccnc3Nc3ccc(F)cc3)nn2)cc(OC)c1 [Compound 6b, N-((1-(3,5-Dimethoxybenzyl)-1H-1,2,3-triazol-4-yl)methyl)-2-((4-fluorophenyl)amino) nicotinamide] | – | –
147 to 149 | 1.31 | 1.25 to 3.98 | 0.74 to 2.51 | 1.17 | COc1cc(Cn2cc(CNC(=O)c3cccnc3Nc3ccc(OC)cc3OC)nn2)cc(OC)c1 [Compound 6g, N-((1-(3,5-Dimethoxybenzyl)-1H-1,2,3-triazol-4-yl)methyl)-2-((2,4-dimethoxyphenyl)amino)nicotinamide] | – | –
